From ChEMBL document CHEMBL6121052, “Design of ROS-Triggered Sesquiterpene Lactone SC Prodrugs as TrxR1 Covalent Inhibitors for the Treatment of Non-Small Cell Lung Cancer” (J Med Chem, 2025)
Active and inactive are the calls of the source. The calls are words filed in the database; no cut-off is given here.

Key:
[1] = system: NCI-H1299; experiment: Induction of apoptosis in human NCI-H1299 cells assessed as viable cells at 10 uM measured after 48 hrs by Annexin V/FITC staining based flow cytometric analysis (reference value: 96.3%); format: functional; details: read-out: Activity
[2] = system: A549; experiment: Induction of ROS accumulation in human TrxR1 knockdown A549 cells incubated for 24 hrs; format: functional, cell-based
[3] = system: NCI-H1299; experiment: Antitumor activity against human NCI-H1299 cells xenografted in BALB/c mouse assessed as decrease in TrxR1 expression at 5 to 10 mg/kg, po administered every 2 days for 2 weeks by IHC analysis; format: functional, organism-based; details: dose 5-10 mg/kg
[4] = system: A549; experiment: Induction of ferroptosis in human A549 cells assessed as effect on GPX4 protein expression at 10 uM incubated for 24 hrs by Western blotting analysis; format: functional, cell-based
[5] = system: A549; experiment: Antiproliferative activity against human A549 cells assessed as decrease in EdU positive cells at 4 uM measured after 14 days by Hoechst 33342 staining based fluorescence microscopic analysis; format: functional, cell-based; details: time 14.0 day
[6] = system: NCI-H1299; experiment: Induction of apoptosis in human NCI-H1299 cells assessed as early apoptotic cells at 10 uM measured after 48 hrs by Annexin V/FITC staining based flow cytometric analysis (reference value: 1.14 %); format: functional
[7] = molecular target: T1, Thioredoxin reductase 1, cytoplasmic (Homo sapiens) (UniProt Q16881); experiment: Inhibition of TrxR1 in human NCI-H2291 cells; format: cell-based; details: dose <= 10.0 µM
T1 sequence (whole entry): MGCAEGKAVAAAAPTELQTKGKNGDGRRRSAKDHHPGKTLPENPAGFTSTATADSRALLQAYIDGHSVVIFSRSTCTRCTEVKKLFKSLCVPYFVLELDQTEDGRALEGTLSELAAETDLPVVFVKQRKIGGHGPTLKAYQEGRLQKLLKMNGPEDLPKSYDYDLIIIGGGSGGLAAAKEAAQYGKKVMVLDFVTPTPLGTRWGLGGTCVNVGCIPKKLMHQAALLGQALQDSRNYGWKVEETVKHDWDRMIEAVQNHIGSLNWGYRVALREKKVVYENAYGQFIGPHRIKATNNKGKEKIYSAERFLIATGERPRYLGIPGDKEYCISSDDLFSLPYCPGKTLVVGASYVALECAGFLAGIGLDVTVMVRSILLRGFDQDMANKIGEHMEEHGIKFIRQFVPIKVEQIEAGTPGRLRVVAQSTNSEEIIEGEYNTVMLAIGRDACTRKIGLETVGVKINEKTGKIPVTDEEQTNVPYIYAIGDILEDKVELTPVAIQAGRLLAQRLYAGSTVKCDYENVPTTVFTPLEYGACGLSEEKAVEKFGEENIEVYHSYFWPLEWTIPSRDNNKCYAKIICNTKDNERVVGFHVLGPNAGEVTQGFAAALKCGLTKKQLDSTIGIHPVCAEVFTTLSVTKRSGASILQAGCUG

[8] = system: NCI-H1299; experiment: Induction of apoptosis in human NCI-H1299 cells assessed as late apoptotic cells at 2.5 uM measured after 48 hrs by Annexin V/FITC staining based flow cytometric analysis (reference value: 1.96%); format: functional
[9] = system: A549; experiment: Induction of apoptosis in human A549 cells assessed as chromatin condensation upto 10 uM by Hoechst 33258 staining based fluorescence microscopic analysis; format: functional, cell-based
[10] = system: NCI-H1299; experiment: Induction of apoptosis in human NCI-H1299 cells assessed as late apoptotic cells at 10 uM measured after 48 hrs by Annexin V/FITC staining based flow cytometric analysis (reference value: 1.96%); format: functional
[11] = system: NCI-H1299; experiment: Induction of morphological changes in human NCI-H1299 cells assessed as decrease in cell density upto 10 uM by AO/EB staining based analysis; format: functional
[12] = system: A549; experiment: Induction of ferroptosis in human A549 cells assessed as increase in intracellular LPO accumulation at 5 uM incubated for 24 hrs by flow cytometry analysis; format: functional, cell-based
[13] = system: NCI-H1299; experiment: Antitumor activity against human NCI-H1299 cells xenografted in BALB/c mouse assessed as decrease in Ki-67 expression at 5 to 10 mg/kg, po administered every 2 days for 2 weeks by IHC analysis; format: functional, organism-based; details: dose 5-10 mg/kg

**Q.** What does the source list for CCCNC(=O)O[C@@H]1/C=C(\C)C[C@H]2C=C(C[C@@H]3OC(=O)[C@H](CSC(=S)N(C)C)[C@H]31)C(=O)O2?
**A.** viability at 10 µM [1]: 68.6%; Activity [2]: Active; Activity [3]: Active; Activity [4]: Active; Activity [5]: Active; Activity [6]: 8.46%; inhibition [7]: Dose-dependent-effect; Activity [8]: 7.41%; Activity [9]: Active; Activity [10]: 21.9%; Activity [11]: Active; Activity [12]: Active; Activity [13]: Active
